Patent US8202902B2, “Bivalent SMAC mimetics and the uses thereof” (The Regents of the University of Michigan, priority 2006, dated 2012)
Values belong to the molecule of their own block, whether it stands above or below them. Residues, ends and D or L forms follow the SMILES beside them. *: point of attachment. Cbz = O=C(OCc1ccccc1)*; CH2F = FC*

Key:
[1] = system: cIAP-1 in cancer cell lines; test: Induction of cIAP-1 degradation in cancer cells; type: cell-based; settings: sensitive and resistant cancer cell lines
[2] = biological target: T1, human XIAP protein (residues 120-356) (Homo sapiens, UniProt P98170); test: Fluorescence-polarization-based binding assay to XIAP protein (Smac2-F tracer); settings: read-out: Binding to XIAP IC50 values
T1 construct: human XIAP protein (residues 120-356) (10 nM)
Experimental: The polarization values were measured after 2 hours incubation, using the Ultra plate reader. […] Curve fitting is performed using GraphPad Prism® software.

[3] = biological target: T2, Recombinant XIAP containing linker-BIR2-BIR3 (residues 120-356) (Homo sapiens, UniProt P98170); test: Cell-free functional assay: antagonism of XIAP inhibition of caspase-3/-7; type: biochemical; settings: up to 100 μM
T2 construct: Recombinant XIAP containing linker-BIR2-BIR3 (residues 120-356)

[4] = system: XIAP, cIAP-1, and cIAP-2 proteins; test: Fluorescence-polarization based binding of control compounds to IAP proteins
Experimental: Therefore binding affinities of Smac mimetics to cIAP-2 BIR3-only protein were evaluated.

[5] = system: MDA-MB-231 human breast cancer cell line; test: Cell growth inhibition, WST-8 assay, MDA-MB-231; type: cell-based; settings: MDA-MB-231, read-out: IC50 values (nM) In WST-assay (MDA-MB-231)
Experimental: (§1) The rate of cell growth inhibition after treatment with different concentrations of the compound was determined using a WST-8 kit (2-(2-methoxy-4-nitrophenyl)-3-(4-nitrophenyl)-5-(2, 4 disulfophenyl)-2H-tetrazolium monosodium salt; Dojindo Molecular Technologies, Inc., Gaithersburg, Md.). WST-8 was added at a final concentration of 10% to each well, and then the plates were incubated at 37° C. for 2-3 hrs. The absorbance of the samples was measured at 450 nm using a ULTRA Tecan Reader (Molecular Device).

SK-OV-3 = test: Cell growth inhibition, WST assay, SK-OV-3; type: cell-based; settings: Homo sapiens
Experimental: as §1, with “Cells were seeded in 96-well flat bottom cell culture plates at a density of 3000 cells/well with a tested compound and incubated at 37° C. in an atmosphere of 95% air and 5% CO2 for 4 days. The rate” for “The rate”

[6] = biological target: T3, XIAP BIR3 protein of human XIAP (residues 241-356) (Homo sapiens, UniProt P98170); test: Fluorescence polarization (FP) based binding assay to XIAP BIR3; settings: read-out: Binding Affinities to XIAP BIR3 (IC50 [uM])
T3 construct: human XIAP (residues 241-356) fused to His-tag; His-tag
Description: In order to test the binding ability of the bivalent Smac mimetics to IAP proteins, a sensitive and quantitative in vitro binding assay using the fluorescence polarization (FP) based method was developed and used to determine the binding affinity of Smac mimetics to XIAP protein (Nikolovska-Coleska et al., Anal Biochem. 332:261-73 (2004)). […] The recombinant XIAP BIR3 protein of human XIAP ([…]) fused to His-tag was stable and soluble, and was used for the FP based binding assay. The dose-dependent binding experiments were carried out with serial dilutions of the tested compounds in DMSO. […] Inc., Research Triangle Park, N.C.). […] Curve fitting was performed using […] PRISM software (GraphPad Software, Inc., San Diego, Calif.).

[7] = system: MDA-MB-231 and SK-OV-3 cancer cell lines; test: Role of caspase-8, -3 and -9 (siRNA, caspase inhibitors) in activity of Smac mimetics; type: cell-based
Description: To examine the role of caspase-8, -3 and -9 in apoptosis induction by Smac mimetics, siRNA was employed against these caspases in MDA-MB-231 and SK-OV-3 cancer cell lines.

[8] = system: MDA-MB-231 xenograft model; test: Inhibition of tumor growth in the MDA-MB-231 xenograft model; type: in vivo, mice; settings: 7.5 mg/kg
Experimental: SM-164 was evaluated for its ability to inhibit tumor growth. […] Treatment with SM-164 at 5 mg/kg reduces the tumor volume from 147±54 mm^3 at the beginning of the treatment (day 25) to 54±32 mm^3 at the end of the treatment (day 36), a reduction of 65%. The strong antitumor activity by SM-164 is long lasting and not transient.

[9] = system: PC-3 human prostate cancer cells; test: Cell growth inhibition by TRAIL alone or with Smac mimetic, PC-3; type: cell-based
Experimental: as §1
(§2) To test the ability of bivalent Smac mimetics to sensitize cancer cells to the growth inhibiting effects of other agents, cell growth inhibition assays were carried out with various agents alone or in combination with increasing doses of bivalent Smac mimetics.

[10] = system: MDA-MB-231 (2LMP) breast cancer cells; test: Cell growth inhibition by TRAIL alone or with Smac mimetic, MDA-MB-231 (2LMP); type: cell-based, human
Experimental: as §1, §2

[11] = system: MDA-MB-453 breast cancer cells; test: Cell growth inhibition by TRAIL alone or with Smac mimetic, MDA-MB-453; type: cell-based
Experimental: as §1, §2

XIAP = XIAP (Homo sapiens, UniProt P98170); settings: cited from earlier work
XIAP, sequence (P98170 whole entry): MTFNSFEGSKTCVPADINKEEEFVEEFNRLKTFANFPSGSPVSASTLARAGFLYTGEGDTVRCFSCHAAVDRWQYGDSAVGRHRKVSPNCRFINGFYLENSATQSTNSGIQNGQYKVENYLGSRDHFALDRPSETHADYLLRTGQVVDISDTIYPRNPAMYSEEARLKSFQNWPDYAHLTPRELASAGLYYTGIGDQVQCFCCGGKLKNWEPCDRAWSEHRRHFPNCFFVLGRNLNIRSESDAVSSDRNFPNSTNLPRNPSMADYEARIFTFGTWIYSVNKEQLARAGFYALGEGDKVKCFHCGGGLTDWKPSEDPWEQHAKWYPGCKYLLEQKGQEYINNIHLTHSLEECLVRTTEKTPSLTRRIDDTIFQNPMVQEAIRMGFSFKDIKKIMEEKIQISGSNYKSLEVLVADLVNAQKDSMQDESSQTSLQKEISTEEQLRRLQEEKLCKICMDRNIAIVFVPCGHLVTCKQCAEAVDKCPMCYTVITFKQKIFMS

T3 sequence (P98170 241-356): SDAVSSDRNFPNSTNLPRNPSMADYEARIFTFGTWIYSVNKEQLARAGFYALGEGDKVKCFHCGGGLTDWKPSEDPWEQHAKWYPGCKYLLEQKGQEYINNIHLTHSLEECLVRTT
T1 sequence (P98170 120-356): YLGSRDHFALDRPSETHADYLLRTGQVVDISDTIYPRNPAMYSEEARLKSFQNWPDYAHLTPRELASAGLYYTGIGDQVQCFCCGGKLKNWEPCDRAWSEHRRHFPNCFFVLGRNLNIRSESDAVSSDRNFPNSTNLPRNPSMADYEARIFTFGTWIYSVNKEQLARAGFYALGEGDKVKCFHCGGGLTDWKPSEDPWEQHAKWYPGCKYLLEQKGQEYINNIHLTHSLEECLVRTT
T2 sequence (P98170 120-356): as above

Molecule: CC(C)C[C@@H](C=O)NC(=O)[C@H](CC(C)C)NC(=O)[C@H](CC(C)C)NC(=O)OCc1ccccc1 [MG-132, reference compound] (Cbz-Leu-Leu-Leu-aldehyde)
effect of proteasome inhibitor on cIAP-1 degradation by SM-122 and SM-164 [1]: effectively blocked cIAP-1 degradation

Molecule: CC(=O)NC(Cc1c[nH]c2ccccc12)C(=O)NC1CCCCC2CCC(C(=O)NC(c3ccccc3)c3cn(CCCCc4ccc(CCCCn5cc(C(NC(=O)C6CCC7CCCCC(NC(=O)C(Cc8c[nH]c9ccccc89)NC(C)=O)C(=O)N76)c6ccccc6)nn5)cc4)nn3)N2C1=O (stereo not shown) [SH-173]
IC50 [2]: > 10000 nM | effect in the functional assay [3]: minimal effect | less potent than SM-164 to these IAP proteins [4]: 1000 times

IC50 [5]: < 10 nM | IC50 [2]: < 100 nM | IC50 (SK-OV-3): < 10 nM
Molecule: CN[C@@H](C)C(=O)N[C@H]1CCCC[C@H]2CC[C@@H](C(=O)N[C@@H](c3ccccc3)c3cn(CCCCCOCCCCn4cc([C@@H](NC(=O)[C@@H]5CC[C@@H]6CCCC[C@H](NC(=O)[C@H](C)NC)C(=O)N65)c5ccccc5)nn4)nn3)N2C1=O [SH-198]

IC50 [5]: < 10 nM | IC50 [2]: < 100 nM | IC50 (SK-OV-3): < 10 nM
Molecule: CN[C@@H](C)C(=O)N[C@H]1CCCC[C@H]2CCC(C(=O)N[C@H](COCCCCCCCCCCCCOC[C@@H](NC(=O)[C@@H]3CC[C@@H]4CCCC[C@H](NC(=O)[C@H](C)NC)C(=O)N43)c3ccccc3)c3ccccc3)N2C1=O (stereo partly shown) [SH-202]

IC50 [6]: < 0.1 µM
Molecule: CN[C@@H](C)C(=O)N[C@H]1CN(C(=O)Cc2ccc(F)cc2)CC[C@H]2CC[C@@H](C(=O)NCc3ccc(F)cc3)N2C1=O [SM-402]

IC50 [6]: < 0.1 µM
Molecule: CN[C@@H](C)C(=O)N[C@H]1CN(C(=O)CCc2ccc(F)cc2)CC[C@H]2CC[C@@H](C(=O)NC(c3ccc(F)cc3)c3ccc(F)cc3)N2C1=O [SM-404]

IC50 [6]: < 0.1 µM
Molecule: CN[C@@H](C)C(=O)N[C@H]1CN(C(=O)CC2CCCC2)CC[C@H]2CC[C@@H](C(=O)NC(c3ccccc3)c3ccccc3)N2C1=O [SM-405]

IC50 [6]: < 0.1 µM
Molecule: CN[C@@H](C)C(=O)N[C@H]1CN(C(=O)CC(C)C)CC[C@H]2CC[C@@H](C(=O)NC(c3ccccc3)c3ccccc3)N2C1=O [SM-406]

IC50 [6]: < 0.1 µM
Molecule: CN[C@@H](C)C(=O)N[C@H]1CN(C(=O)CCc2ccc(F)cc2)CC[C@H]2CC[C@@H](C(=O)NC(c3ccccc3)c3ccccc3)N2C1=O [SM-407]

IC50 [6]: < 0.1 µM
Molecule: CN[C@@H](C)C(=O)N[C@H]1CN(C(=O)CCc2ccccc2)CC[C@H]2CC[C@@H](C(=O)NC(c3ccccc3)c3ccccc3)N2C1=O [SM-408]

IC50 [6]: < 0.1 µM
Molecule: CCCC(=O)N1CC[C@H]2CC[C@@H](C(=O)NC(c3ccccc3)c3ccccc3)N2C(=O)[C@@H](NC(=O)[C@H](C)NC)C1 [SM-409]

Molecule: COC(=O)CC[C@H](NC(=O)[C@H](CC(=O)OC)NC(=O)OCc1ccccc1)C(=O)N[C@H](C(=O)N[C@@H](CC(=O)OC)C(=O)CF)C(C)C [Z-DEVD-FMK, reference compound]
effect of caspase inhibitor on the activity of both Smac mimetics (SM-164, SM-122) [7]: markedly inhibited

Molecule: CC[C@H](C)[C@H](NC(=O)OCc1ccccc1)C(=O)N[C@@H](CCC(=O)OC)C(=O)N[C@H](C(=O)N[C@@H](CC(=O)OC)C(=O)CF)[C@@H](C)O [Z-IETD-FMK, reference compound] (Cbz-IE(OMe)TD(OMe)-CH2F)
effect of caspase inhibitor on the activity of both Smac mimetics (SM-164, SM-122) [7]: markedly inhibited

Molecule: CC(=O)O[C@@]12CO[C@@H]1C[C@H](O)[C@@]1(C)C(=O)[C@H](O)C3=C(C)[C@@H](OC(=O)[C@H](O)[C@@H](NC(=O)OC(C)(C)C)c4ccccc4)C[C@@](O)([C@@H](OC(=O)c4ccccc4)[C@H]21)C3(C)C [taxotere, reference compound]
inhibition of tumor growth compared to control [8]: effective in inhibition of tumor growth | tumor regression [8]: failed to achieve tumor regression

IC50 of TRAIL alone [9]: > 0.3 µg/mL | IC50 of TRAIL alone [10]: 0.0022 µg/mL | IC50 of TRAIL alone [11]: > 1 µg/mL
Molecule: TRAIL: tumor necrosis factor-related apoptosis-inducing ligand

B1: mature Smac protein: mature Smac protein, endogenous inhibitor of XIAP (protein, UniProt Q9NR28 22-239, looked up)
Diablo IAP-binding …: LCVPVVANFKKRCFSELIRPWHKTVTIGFGVTLCAVPIAQKSEPHSLSSEALMRRAVSLVTDSTSTFLSQTTYALIEAITEYTKAVYTLTSLYRQYTSLLGKMNSEEEDEVWQVIIGARAEMTSKHQEYLKLETTWMTAVGLSEMAAEAAYQTGADQASITARNHIQLVKLQVEEVHQLSRKAETKLAEAQIEELRQKTQEEGEERAESEQEAYLRED
Kd (XIAP): 420 nM
